Reference: US20250241878A1, “TYROSINE AND RESVERATROL DERIVATIVES AS NOVEL MODULATORS OF CELLULAR SERINE ADP-RIBOSYLATION” (UNIVERSITY OF SOUTH CAROLINA, priority 2022, published 2025)
“Also recorded” adds a separate entry of the source. Like-named read-outs stand apart in the source and are kept apart here. Where a SMILES comes first, the peptide text is derived from it. The star is where a group is joined. Cbz = O=C(OCc1ccccc1)*

Legend:
[1] = test system: rat cortical neurons; test: MTT cell viability assay; details: for effect on cis-RSV-mediated neuroprotective effects: combination with cis-RSV, NMDA toxicity; for neurotoxicity (viability): D-amino acid alone; for effect on trans-RSV-mediated neurotoxicity: combination with trans-RSV
Method: (§4) Rat cortical neurons (DIV9-11) were exposed to different treatments (NMDA, ETO, H2O2, MPP+) after seeding 20,000 cells/well in 96-well plates. Cell viability was then assessed at 48 hr after the initial exposure to NMDA. 3-[4,5-dimethylthiazole-2-yl]-2,5-diphenyltetrazolium bromide (MTT) assays were used to assess change in cell viability. […] Cultured rat cortical neurons were incubated with MTT (0.5 mg/mL). In the MTT assay, after 2 hr incubation, the insoluble purple product formazan resulting from the reduction of MTT by NAD (P) H-dependent oxidoreductases present in cells with viable mitochondria was solubilized in dimethyl sulfoxide at room temperature, under agitation, and protected from light. The percentage of MTT reduced as measured by the difference between the absorbances at 570 nm read in a spectrophotometer (SpectraMax® 190R Molecular Devices, UK).

[2] = test system: rat cortical neurons
Method: as §4

[3] = test system: cleaved caspase-3; test: Cleaved caspase-3 immunoblot; type: cell-based, rat; details: compound alone; trans-RSV at high concentration
Method: FIG. 17E presents immunoblots showing the levels of cleaved caspase-3 in rat cortical neurons (DIV 9/10) after the treatment with D-Tyr (2 mM) for 16 hr.

[4] = test system: histone H3-Ser10-ADP-ribosylation; test: Histone H3 serine-ADP-ribosylation immunoblot in cortical neurons; type: cell-based, rat; details: for histone H3 serine-ADP-ribosylation: compound alone; for histone serine-ADP-ribosylation: picomolar concentration (5-50 pM)
Method: FIG. 5B presents representative immunoblots and quantification of histone H3-Ser10-ADP-ribosylation levels in cortical neurons (DIV9) using anti-H3-Ser10-ADPR antibody after treatment with D-tyrosine (2.5 and 5 mM).
(§1) Cultured neurons (DIV 9-10) were washed once with cold 1×PBS and lysed in cell lysis buffer (20 mM Tris-HCl (pH 7.5), 150 mM NaCl, 1 mM Na2EDTA, 1 mM EGTA, 1% Triton™, 2.5 mM sodium pyrophosphate, 1 mM beta-glycerophosphate, 1 mM Na3VO4, 1 μg/ml leupeptin supplemented with protease inhibitor). The lysates were centrifuged at 10,000 RPM for 15 mins at 4° C. to separate the chromatin-bound and soluble fractions. Lysates were quantified using Bio-Rad™ Protein Assay and equal amounts of protein were loaded onto a 4 to 12% gradient gel (Invitrogen™ NuPAGE™). Protein was transferred from the gel to 0.2 μm NC membranes at 25 V for 10 mins using transfer stacks (iBlot™ 2-Invitrogen™) and blocked with 5% non-fat milk in TBST (10 mM Tris-HCl pH 8.0, 150 mM NaCl, 0.01% Tween-20) for 1 hr before application of primary antibodies. Primary and secondary antibodies were incubated overnight at 4° C. and for 1 hr at room temperature, respectively. Immobilon® ECL Ultra Western HRP Substrate (WBULS0500, Millipore™) and a luminescent image analyzer (ChemiDoc™ Imaging System, Bio-Rad™) were used to detect proteins. Quantification of western blots was done using ImageJ (Version 1.53c).

[5] = test system: TyrRS; type: cell-based, rat; details: for levels of neuronal TyrRS: neurotoxic agent alone, after 4 hr of treatment; for neuronal TyrRS levels: picomolar concentration (5-50 pM)
Method: (§2) Primary cortical neurons were dissected from E18 Sprague Dawley rat pups in Hibernate E (BrainBits®) and dissociated using the Neural Tissue Dissociation kit (Miltenyi Biotec). Minced cortices were incubated in a pre-warmed enzyme mix at 37° C. for 15 min; tissues were then triturated and strained using a 40 μm cell strainer. After washing and centrifugation, neurons were seeded in 50 μg/ml poly-D-Lysine (Sigma-Aldrich) coated tissue culture plates. NBActive-1 medium (BrainBits®) supplemented with 100 U/ml of Penicillin-Streptomycin (Life Technologies™), 2 mM L-Glutamine (Life Technologies™), and 1×N21 supplement (R&D Systems™) was used as culture medium. For preparation of culture medium containing reduced tyrosine, the components of NBActive-1 medium were altered to combined with a reduced concentration of tyrosine, as mentioned in Table 1, and was supplemented with 100 U/ml of Penicillin-Streptomycin (Life Technologies™), 2 mM L-Glutamine (Life Technologies™), and 1×N21 supplement (R&D Systems™) to obtained culture medium with reduced tyrosine. Control (non-targeting), TyrRS, and PARP1 siRNAs were obtained from Invitrogen™ (#AM4635, s443, and s130207, respectively). Rat cortical neurons at 5 DIV were transfected with 75 nM control or TyrRS siRNA using DharmaFECT™ 3 Transfection Reagent. A second transfection was done two days later using 75 nM of TyrRS siRNA, followed by cell collection or assays after another 48 hr. For PARP1 siRNA, neurons at 7 DIV were transfected with 75 nM siRNA for both control and PARP1 siRNA.
as §1
Cultured cortical neurons (DIV 9-10) were fixed in 4% formaldehyde for 15 min, followed by permeabilization and blocking for 30 min in 5% BSA (PBS) and 0.1% Tween™ 20 at room temperature. Incubation with primary antibodies was done at 4° C. overnight. The names and dilutions of the primary antibodies used for IF are described in Table 3. Secondary antibodies were incubated for 1 hr at room temperature. Secondary antibodies used were Alexa Fluor® 647 (anti-chicken), Alexa Fluor® 555 (anti-mouse), Alexa Fluor® 488 (anti-rabbit) from Invitrogen™ at 1:1000 dilution. Coverslips were then mounted using DAPI (4′,6-diamidino-2-phenylindole)-supplemented mounting medium, ProLong™ Gold Antifade (Invitrogen™) and imaged with Leica DMI6000 epifluorescent microscope using oil immersion 63×/NA 1.4 objective. The quantification for total protein levels in neurons was done using ImageJ (version 1.53c), and imaging parameters were matched for exposure, gain, and offset.
(§3) The various compounds used for treatments and their stock concentrations in Table 4.

[6] = test system: PheRSα/β; test: PheRSα/β protein levels in cortical neurons (Western blot); type: cell-based, rat; details: for PheRSβ levels: compound alone
Method: as §2, §1, §3

[7] = test system: eEF2; test: eEF2 phosphorylation (p-eEF2) Western blot in cortical neurons; type: cell-based, rat; details: compound alone
Method: as §2, §1

[8] = test system: HPF1; test: HPF1 levels immunoblot in cortical neurons; type: cell-based, rat; details: compound alone
Method: FIG. 5A presents immunoblots showing the protein levels of HPF1 in rat cortical neurons (DIV9-10) after treatment with Tyr ([…]) for up to 8 hr.
as §1

[9] = test system: monosomes; test: Monosome formation in cortical neurons; type: cell-based, rat
[10] = test system: neuronal chromatin; test: Chromatin fraction immunoblots of cortical neurons; type: cell-based, rat; details: picomolar concentration
Method: as §1

[11] = compound alone, rat cortical neurons

Molecule: CN(C)Cc1ccc(-c2nc3cccc4c3n2CCNC4=O)cc1 [AG-14361]
- effect on cis-RSV-mediated neuroprotective effects [1]: did not affect cis-RSV-mediated neuroprotective effects

Molecule: N[C@H](Cc1ccccc1)C(=O)O [D-Phe]
- neurotoxicity (viability) [1]: had no significant effects

Molecule: N[C@H](Cc1c[nH]c2ccccc12)C(=O)O [D-Trp]
- neurotoxicity (viability) [2]: had no significant effects

Molecule: N[C@H](Cc1ccc(O)cc1)C(=O)O [D-Tyr, D-tyrosine]
- neurotoxicity (viability) [1]: induced neurotoxicity
- levels of cleaved caspase-3 [3]: increased the levels of cleaved caspase-3
- histone H3 serine-ADP-ribosylation [4]: potent inhibitor of TyrRS/PARP1/HPF1-dependent serine-ADP-ribosylation and DNA repair

Molecule: NCCc1ccc(O)c(O)c1 [DA, dopamine]
- effect on trans-RSV-mediated neurotoxicity [1]: protected against neurotoxic effects of trans-RSV
- TyrRS protein levels [5]: increased the protein levels of TyrRS
- histone H3 serine-ADP-ribosylation [4]: stimulated histone H3 serine-ADP-ribosylation

Molecule: NCCc1cc(O)c(O)cc1O [Formula 6-OHDA, 6-hydroxydopamine]
- PheRSβ levels [6]: decreased the levels of TyrRS and PheRSβ
- TyrRS protein levels [5, 11]: decreased the levels of TyrRS

Molecule: O=C(COc1ccc(Cl)cc1)NC1CCC(NC(=O)COc2ccc(Cl)cc2)CC1 (stereo not shown) [ISRIB]
- PheRSβ protein levels ([6]; ISRIB 5-50 nM): increased the protein levels of TyrRS and PheRSβ
- eEF2 phosphorylation (p-eEF2) [7]: stimulated the dephosphorylation of eEF2
- effect on trans-RSV-mediated neurotoxicity [1]: protected against neurotoxic effects of trans-RSV
- HPF1 levels [8]: increased HPF1 levels
- TyrRS protein levels ([5]; ISRIB 5-50 nM): increased the protein levels of TyrRS
- effect on trans-RSV mediated depletion of TyrRS ([5]; combination with trans-RSV): rescued trans-RSV mediated depletion of TyrRS
- TyrRS levels ([5]; higher doses of ISRIB (250-500 nM)): decreased TyrRS levels
- histone H3 serine-ADP-ribosylation [4]: induction of histone H3 serine-ADP-ribosylation

Molecule: N[C@@H](Cc1ccc(O)c(O)c1)C(=O)O [L-DOPA, 3,4-dihydroxy-L-phenylalanine]
- PheRSβ levels [6]: decreased the levels of TyrRS and PheRSβ
- TyrRS protein levels [5, 11]: decreased the levels of TyrRS

Molecule: CC(C)C[C@@H](C=O)NC(=O)[C@H](CC(C)C)NC(=O)[C@H](CC(C)C)NC(=O)OCc1ccccc1 [MG132] (Cbz-Leu-Leu-Leu-aldehyde)
- TyrRS protein levels [5, 11]: increased the levels of TyrRS

Molecule: C[n+]1ccc(-c2ccccc2)cc1 [MPP+, 1-methyl-4-phenylpyridinium]
- levels of neuronal TyrRS [5]: decreased the levels of neuronal TyrRS

Molecule: CN[C@H](CC(=O)O)C(=O)O [NMDA, N-Methyl-D-aspartate]
- levels of neuronal TyrRS [5]: decreased the levels of neuronal TyrRS

Molecule: CO/C1=C\C(C)=C\[C@@H](C)[C@@H](O)[C@@H](C)C/C(C)=C/C=C/[C@H](OC)[C@@H]([C@@H](C)[C@@H](O)[C@H](C)[C@@]2(O)C[C@@H](O)[C@H](C)[C@@H](C(C)C)O2)OC1=O [bafilomycin]
- TyrRS protein levels [5, 11]: increased the levels of TyrRS

Molecule: C[C@@H]1C[C@@H]([C@H](O)CC2CC(=O)NC(=O)C2)C(=O)[C@@H](C)C1 [cycloheximide]
- effect on cis-RSV-mediated increase in TyrRS level ([5]; combination with cis-RSV): abrogated
- TyrRS protein levels [5, 11]: decreased TyrRS levels

Molecule: CCn1c(=O)c2cc(C(N)=O)c(N)nc2n(C2CC2)c1=O [eEF2K inhibitor]
- effect on trans-RSV-mediated neurotoxicity [1]: protected against neurotoxic effects of trans-RSV

Molecule: Cc1c(O)cccc1C(=O)N[C@@H](CSc1ccccc1)[C@H](O)CN1C[C@H]2CCCC[C@H]2C[C@H]1C(=O)NC(C)(C)C [nelfinavir]
- TyrRS protein levels [5, 11]: depleted neuronal TyrRS

Molecule: O=C(c1cc(Cc2n[nH]c(=O)c3ccccc23)ccc1F)N1CCN(C(=O)C2CC2)CC1 [olaparib]
- effect on cis-RSV-mediated neuroprotective effects [1]: mitigated the neuroprotective effects of cis-RSV
- effect on trans-RSV-mediated neurotoxicity [1]: did not affect trans-RSV-mediated neurotoxicity

Molecule: N[C@@H](Cc1ccccc1)C(=O)O [phenylalanine, L-phenylalanine]
- PheRSβ levels [6]: decreased the levels of TyrRS and PheRSβ
- TyrRS protein levels [5, 11]: decreased the levels of TyrRS

Molecule: Cn1ncnc1[C@H]1c2n[nH]c(=O)c3cc(F)cc(c23)N[C@@H]1c1ccc(F)cc1 [talazoparib]
- effect on amyloid beta 42-induced monosome formation ([9]; combination with amyloid beta 42 (10 picomolar)): lost

Molecule: amyloid beta 40: amyloid beta 40 peptide at picomolar concentration
- neuronal TyrRS levels [5]: stimulation of neuronal TyrRS protein levels
- histone serine-ADP-ribosylation [4]: activation of histone serine-ADP-ribosylation

Molecule: amyloid beta 42: amyloid beta 42 peptide at physiological picomolar concentration
- chromatin trapping of auto-PARylated PARP1 with Rad52, DNA polymerase beta, ligase III, TyrRS [10]: trapping of auto-PARylated PARP1 along with Rad52, DNA polymerase beta, ligase III, TyrRS onto the chromatin
- monosome formation ([9]; picomolar amyloid beta 42 (5-50 pM; 10 picomolar in FIG. 20A)): endogenous stimulator of monosome formation
- neuronal TyrRS levels [5]: stimulation of neuronal TyrRS protein levels; also recorded: endogenous stimulator
- histone serine-ADP-ribosylation [4]: activation of histone serine-ADP-ribosylation; also recorded: endogenous stimulator

B1: BDNF: brain-derived neurotrophic factor (protein, UniProt P23560 19-247, looked up)
Neurotrophic factor BDNF …: APMKEANIRGQGGLAYPGVRTHGTLESVNGPKAGSRGLTSLADTFEHVIEELLDEDQKVRPNEENNKDADLYTSRVMLSSQVPLEPPLLFLLEEYKNYLDAANMSMRVRRHSDPARRGELSVCDSISEWVTAADKKTAVDMSGGTVTVLEKVPVSKGQLKQYFYETKCNPMGYTKEGCRGIDKRHWNSQCRTTQSYVRALTMDSKKRIGWRFIRIDTSCVCTLTIKRGR
- HPF1 levels [8]: increased HPF1 levels
- TyrRS protein levels [5, 11]: stimulates the de novo synthesis of neuronal TyrRS
- histone H3 serine-ADP-ribosylation [4]: induction of histone H3 serine-ADP-ribosylation
